Assay results published in patent publication US6515020B1, “Combination of carnitines and resveratrol for prevention or treatment of cerebral and ageing disorders” (Sigma-Tau HealthScience S.p.A., priority 1998, dated 2003).

Columns and labels:
[1] = system: pheochromocytoma cells (PC-12); assay: Survival of pheochromocytoma cells (PC-12) exposed to H2O2; type: cell-based; settings: for survival rate: 0.1 mM H2O2 30 minutes
Description: Tests of survival of pheochromocytoma cells (PC-12) exposed to H2O2 and treated with L-carnitine or resveratrol or with the two products in combination
A culture of pheochromocytoma cells (PC-12) containing 3×10^5 N-cells/ml was exposed to 0.1 mM concentrations of H2O2 for 30 minutes. While the survival of the cells treated with H2O2 alone was approximately 45% after 24 hours, the survival of the cells treated with L-carnitine or with resveratrol was substantially greater, with survival rates of 55, 60 and 62%, respectively, for cells treated with L-carnitine, acetyl L-carnitine and propionyl L-carnitine at concentrations of 10^−8 M, and a survival rate of 69% for cells treated with resveratrol at the concentration of 10^−4 M.

[2] = system: spontaneous motility of endothelin (ET-1)-treated mice; assay: Spontaneous motility of mice reduced by intracerebral endothelin (ET-1); type: in vivo
Source text: One of the effects of a vasoactive peptide and neuromodulator such as endothelin is the influence it exerts on animal behaviour in reducing the animals' motility and vestibular reactions.
In these tests, we were able to observe that the typical action of endothelin (ET-1) injected intracerebrally in mice at the dose of 1 pmol/mouse, which is to substantially reduce the animals' spontaneous motility, can be inhibited to a very significant extent by prior administration of carnitines and resveratrol, and, particularly, that the combination of these two types of substances is capable of acting synergistically, restoring the motility reduced by endothelin administration almost to normal values.
The values were observed, keeping 10 mice at a time placed in a container with a photocell and an automatic movement counter; the count was done by observing the mice for periods of 5 minutes 15 minutes after the endothelin (ET-1) injection.

[3] = system: sensory neuronal lesions induced by cisplatin; type: in vivo, mouse; settings: cisplatin-treated mice; 10 animals per group
Description: In these tests, cisplatin was used as a neuronal toxic factor, capable, particularly, of producing lesions in the sensory neurones and thus of impairing proprioceptive perception. The tests evaluated the ability of carnitines, resveratrol and combinations of these substances to restore peripheral sensory perception in the mouse impaired by injection of cisplatin. This ability was assessed by evaluating the reaction to thermal pain induced by a heated water solution in which the animals' tails were dipped according to the tail-flick test, or using the rotating bar test (Apfel S.C., Lipton R.B., Ann. Neurol., 29, 87-90, 1991).
Cisplatin was administered subcutaneously at the dose of 10 mg/kg for eight consecutive days. Over the same period the mice received injections of 100 mg/kg of carnitines and 2.5 mg/kg of resveratrol or combinations of these products.
The values observed, in fact, were 13.5 seconds in the animals treated with acetyl L-carnitine plus resveratrol and 14.4 seconds in those treated with propionyl L-carnitine plus resveratrol.

[4] = carnitines 300 mg/kg intra-peritoneally for three days preceding and half an hour before ET-1 injection

Which “survival of the cells” value ([1]; 0.1 mM H2O2 alone for 30 minutes, after 24 hours) does the source give for `OO` [H2O2] here?
The value was “approximately 45%”.

For `CCC(=O)O[C@H](CC(=O)[O-])C[N+](C)(C)C` [propionyl L-carnitine], which motility reduction percentage [2, 4] is on record?
The motility reduction percentage was 60.3%.

What about the survival rate ([1]; carnitine at 10^−8 M) of the same compound?
The survival rate was 62%.

How did the motility reduction percentage ([2]; endothelin alone, 1 pmol/mouse intracerebrally, count for 5 minutes, 15 minutes after injection) turn out when `CC[C@H](C)[C@H](NC(=O)[C@H](CC(=O)O)NC(=O)[C@H](CC(C)C)NC(=O)[C@H](Cc1c[nH]cn1)NC(=O)[C@@H]1CSSC[C@H](N)C(=O)N[C@@H](CO)C(=O)N[C@H]2CSSC[C@H](NC(=O)[C@H](CCC(=O)O)NC(=O)[C@H](CCCCN)NC(=O)[C@H](CC(=O)O)NC(=O)[C@H](CCSC)NC(=O)[C@H](CC(C)C)NC(=O)[C@H](CO)NC(=O)[C@H](CO)NC2=O)C(=O)N[C@@H](C(C)C)C(=O)N[C@@H](Cc2ccc(O)cc2)C(=O)N[C@@H](Cc2ccccc2)C(=O)N1)C(=O)N[C@H](C(=O)N[C@@H](Cc1c[nH]c2ccccc12)C(=O)O)[C@@H](C)CC` [endothelin] was run?
The motility reduction percentage was 85.5%.

How did the motility reduction percentage [2, 4] turn out when `CC(=O)O[C@H](CC(=O)[O-])C[N+](C)(C)C` [acetyl L-carnitine] was run?
Its motility reduction percentage is 65.5%.

What about the survival rate ([1]; carnitine at 10^−8 M) of the same compound?
The survival rate was 60%.

With `Oc1ccc(/C=C/c2cc(O)cc(O)c2)cc1` [resveratrol, trans-3,4′,5-trihydroxy-stilbene] as the compound, how does the “increase in equilibrium time” value [3] read?
Its value is “significant increase”.

What about the motility reduction percentage ([2]; alone, resveratrol 2.5 mg/kg, ET-1 treated mice) of the same compound?
Its motility reduction percentage is 60.4%.

What about the survival rate ([1]; resveratrol at 10^−4 M) of the same compound?
Its survival rate is 69%.

For `C[N+](C)(C)C[C@H](O)CC(=O)[O-]` [L-carnitine], which motility reduction percentage [2, 4] is on record?
The motility reduction percentage was 69.6%.

And the survival rate ([1]; carnitine at 10^−8 M)?
Its survival rate is 55%.
